Data on 19 compounds can be found in US8524702B2, “Substituted benzoazepines as toll-like receptor modulators” (VentiRx Pharmaceuticals, Inc., priority 2009, dated 2013).

Assay [1] addresses T1, TLR7 (Homo sapiens, UniProt Q9NYK1).
T1 sequence (Q9NYK1 27-1049): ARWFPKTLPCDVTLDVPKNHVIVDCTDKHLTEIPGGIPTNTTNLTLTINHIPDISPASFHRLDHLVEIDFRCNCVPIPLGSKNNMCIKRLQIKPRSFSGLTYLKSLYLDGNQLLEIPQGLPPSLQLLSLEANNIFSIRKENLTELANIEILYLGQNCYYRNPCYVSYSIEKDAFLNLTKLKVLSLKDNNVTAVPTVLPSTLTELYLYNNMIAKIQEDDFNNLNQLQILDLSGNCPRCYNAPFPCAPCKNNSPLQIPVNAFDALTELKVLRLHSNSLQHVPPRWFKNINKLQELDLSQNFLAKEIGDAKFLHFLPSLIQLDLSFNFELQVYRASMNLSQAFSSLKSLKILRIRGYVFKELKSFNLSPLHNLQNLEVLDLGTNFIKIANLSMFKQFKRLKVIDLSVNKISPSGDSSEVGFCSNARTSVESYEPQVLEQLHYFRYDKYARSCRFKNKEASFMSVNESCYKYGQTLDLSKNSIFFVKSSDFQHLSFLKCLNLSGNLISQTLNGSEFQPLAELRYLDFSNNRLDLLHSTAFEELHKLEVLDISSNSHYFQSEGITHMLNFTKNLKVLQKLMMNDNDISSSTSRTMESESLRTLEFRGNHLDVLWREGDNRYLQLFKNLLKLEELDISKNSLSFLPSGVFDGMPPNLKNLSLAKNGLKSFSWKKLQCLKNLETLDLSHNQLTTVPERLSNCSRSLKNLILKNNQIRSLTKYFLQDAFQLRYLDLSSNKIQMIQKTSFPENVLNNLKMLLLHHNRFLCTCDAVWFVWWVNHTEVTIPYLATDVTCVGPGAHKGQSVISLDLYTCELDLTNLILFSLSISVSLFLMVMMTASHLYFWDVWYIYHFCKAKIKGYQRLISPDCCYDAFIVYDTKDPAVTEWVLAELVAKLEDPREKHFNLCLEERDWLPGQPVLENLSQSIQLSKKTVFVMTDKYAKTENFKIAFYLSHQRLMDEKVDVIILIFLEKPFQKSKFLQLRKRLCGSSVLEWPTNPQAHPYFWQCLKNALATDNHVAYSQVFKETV
Description: PBMC assay for TLR7 (IFNα in supernatants by ELISA). The class given is cell-based. The arrangement: Peripheral blood mononuclear cells (PBMCs) from human blood were isolated; endogenous in cells; host or cells: human PBMCs. The settings on record: human PBMCs incubated with compound overnight, MC50 = concentration at which 50% of the maximum induction is seen. How it is done: (§1) Peripheral blood mononuclear cells (PBMCs) from human blood were isolated using BD Vacutainer Cell Preparation Tubes with sodium citrate. Cells were incubated with compound overnight. TLR8 activity was assayed by measuring the amount of TNFα in supernatants by ELISA. TLR7 activity was assayed by measuring the amount of IFNα in supernatants by ELISA (R&D Systems). […] The results of this assay are shown below in Tables 2 and 3.
(§2) MC50 numbers are represented as factors of ten, for example, + indicates an MC50 value of ×10^4, or a value in the tens of thousands of nanomolar (nM range); ++ indicates an MC50 value of ×10^3, or a value in the thousands; +++ indicates an MC50 value of ×10^2, or a value in the hundreds; and ++++ indicates an MC50 value of ×10^1 or 10°, or a value in the tens or ones.
(In general: An ELISA detects its analyte on a solid surface through an enzyme-linked reagent.)

Assay [2] has as its target T2, TLR8 (Homo sapiens, UniProt Q9NR97).
T2 sequence (Q9NR97 27-1041): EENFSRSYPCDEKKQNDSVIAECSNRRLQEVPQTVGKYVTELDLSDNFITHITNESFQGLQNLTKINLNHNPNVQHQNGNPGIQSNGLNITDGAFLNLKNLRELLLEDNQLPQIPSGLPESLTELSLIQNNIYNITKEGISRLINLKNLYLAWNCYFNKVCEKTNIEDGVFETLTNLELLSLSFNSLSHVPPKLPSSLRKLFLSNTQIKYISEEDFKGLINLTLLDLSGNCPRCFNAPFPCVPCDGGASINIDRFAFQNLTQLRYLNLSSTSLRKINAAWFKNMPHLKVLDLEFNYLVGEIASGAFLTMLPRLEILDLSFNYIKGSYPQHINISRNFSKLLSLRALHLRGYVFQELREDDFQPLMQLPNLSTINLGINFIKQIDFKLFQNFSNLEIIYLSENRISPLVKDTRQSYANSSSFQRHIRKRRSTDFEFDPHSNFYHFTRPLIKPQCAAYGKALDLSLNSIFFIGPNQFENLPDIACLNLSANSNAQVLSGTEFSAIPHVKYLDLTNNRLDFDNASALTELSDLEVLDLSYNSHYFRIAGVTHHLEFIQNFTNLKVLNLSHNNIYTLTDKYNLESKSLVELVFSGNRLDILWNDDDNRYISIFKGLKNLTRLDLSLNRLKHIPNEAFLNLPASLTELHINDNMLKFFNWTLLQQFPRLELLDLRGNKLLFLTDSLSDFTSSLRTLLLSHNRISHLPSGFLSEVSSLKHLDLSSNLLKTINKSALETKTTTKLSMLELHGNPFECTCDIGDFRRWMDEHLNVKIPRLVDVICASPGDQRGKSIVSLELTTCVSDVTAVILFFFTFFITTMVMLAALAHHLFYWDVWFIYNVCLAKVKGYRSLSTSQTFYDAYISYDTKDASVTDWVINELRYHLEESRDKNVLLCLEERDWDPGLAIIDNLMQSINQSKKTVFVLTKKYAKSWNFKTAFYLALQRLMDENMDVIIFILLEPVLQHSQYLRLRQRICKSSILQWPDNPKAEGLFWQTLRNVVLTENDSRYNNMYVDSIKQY
Description: PBMC assay for TLR8 (TNFα in supernatants by ELISA). The class given is cell-based. The settings on record: human PBMCs incubated with compound overnight, MC50 = concentration at which 50% of the maximum induction is seen. The arrangement: Peripheral blood mononuclear cells (PBMCs) from human blood were isolated; endogenous in cells; host or cells: human PBMCs. Here is the method: as §1, §2

For `CCCN(C[C@H](C)O)C(=O)C1=Cc2ccc(-c3ccc(C(=O)N4CCCC4)cc3)cc2N=C(N)C1` (single isomer, unassigned) [Compound 105], the EC50 – broadly, the concentration that produces a half-maximal response – in assay [1] lay within 1000 to 10000 nM; in assay [2], 1 to 100 nM.

For `CC(C)CN(CC(C)C)C(=O)C1=Cc2ccc(-c3ccc(C(=O)N4CCCC4)cc3)cc2N=C(N)C1` [Compound 103, (1E,4E)-2-amino-N,N-diisobutyl-8-(4-(pyrrolidine-1-carbonyl)phenyl)-3H-benzo[b]azepine-4-carboxamide], the EC50 in assay [1] and in assay [2] was 1000 to 10000 nM throughout.

As to `CCCN(CC(C)O)C(=O)C1=Cc2ccc(-c3ccc(C(=O)N4CCCC4)cc3)cc2N=C(N)C1` (centres unmarked) [Compound 104, (1E,4E)-2-amino-N-(2-hydroxypropyl)-N-propyl-8-(4-(pyrrolidine-1-carbonyl)phenyl)-3H-benzo[b]azepine-4-carboxamide], the values for the EC50 in assay [1] and in assay [2] were 1000 to 10000 nM and 1 to 100 nM, respectively.

Turning to `CCCN(CCCO)C(=O)C1=Cc2ccc(-c3ccc(C(=O)N4CCCC4)cc3)cc2N=C(N)C1` [Compound 109, (1E,4E)-2-amino-N-(3-hydroxypropyl)-N-propyl-8-(4-(pyrrolidine-1-carbonyl)phenyl)-3H-benzo[b]azepine-4-carboxamide], the values for the EC50 in assay [1] and in assay [2] were 1000 to 10000 nM and 1 to 100 nM, respectively.

For `NC1=Nc2cc(-c3ccc(C(=O)N4CCCC4)cc3)ccc2C=C(C(=O)N2C[C@@H](O)[C@H](O)C2)C1` [Compound 112, (4-((1E,4E)-2-amino-4-((3R,4R)-3,4-dihydroxypyrrolidine-1-carbonyl)-3H-benzo[b]azepin-8-yl)phenyl)(pyrrolidin-1-yl)methanone], the EC50 in assay [1] is 10000 to 100000 nM; in assay [2], 1000 to 10000 nM.

Take `CCCN(CC(C)(C)O)C(=O)C1=Cc2ccc(-c3ccc(C(=O)N4CCCC4)cc3)cc2N=C(N)C1` [Compound 117, (1E,4E)-2-amino-N-(2-hydroxy-2-methylpropyl)-N-propyl-8-(4-(pyrrolidine-1-carbonyl)phenyl)-3H-benzo[b]azepine-4-carboxamide]: the values for the concentration giving a half-maximal response (EC50) in assay [1] and in assay [2] were 10000 to 100000 nM and 100 to 1000 nM, respectively.

As to `CCCN(CCOC)C(=O)C1=Cc2ccc(-c3ccc(C(=O)N4CCCC4)cc3)cc2N=C(N)C1` [Compound 119, (1E,4E)-2-amino-N-(2-methoxyethyl)-N-propyl-8-(4-(pyrrolidine-1-carbonyl)phenyl)-3H-benzo[b]azepine-4-carboxamide], the results for the EC50 in assay [1] and in assay [2] were 1000 to 10000 nM and 100 to 1000 nM, respectively.

For the compound `CCCN(CCC)C(=O)C1=Cc2ccc(-c3ccc(C(=O)N(CC)CC)cc3)cc2N=C(N)C1` [Compound 125, (1E,4E)-2-amino-8-(4-(diethylcarbamoyl)phenyl)-N,N-dipropyl-3H-benzo[b]azepine-4-carboxamide], the half-maximal effective concentration (EC50) in assay [1] was in the range of 1000 to 10000 nM; in assay [2] it was 100 to 1000 nM.

`CCCN(CCC)C(=O)C1=Cc2ccc(-c3ccc(C(=O)N4CCCCC4)cc3)cc2N=C(N)C1` [Compound 126, (1E,4E)-2-amino-8-(4-(piperidine-1-carbonyl)phenyl)-N,N-dipropyl-3H-benzo[b]azepine-4-carboxamide]: the EC50 in assay [1] is 1000 to 10000 nM; in assay [2], 100 to 1000 nM.

As to `CCCN(CCC)C(=O)C1=Cc2ccc(-c3ccc(C(=O)N4CC[C@H](O)C4)cc3)cc2N=C(N)C1` [Compound 128, (1E,4E)-2-amino-8-(4-((S)-3-hydroxypyrrolidine-1-carbonyl)phenyl)-N,N-dipropyl-3H-benzo[b]azepine-4-carboxamide], the figures for the EC50 in assay [1] and in assay [2] were 1000 to 10000 nM and 1 to 100 nM, respectively.

`CCCN(CCC)C(=O)C1=Cc2ccc(-c3cccnc3)cc2N=C(N)C1` [Compound 133, (1E,4E)-2-amino-N,N-dipropyl-8-(pyridin-3-yl)-3H-benzo[b]azepine-4-carboxamide]: the EC50 in assay [1] lay in the range of 1000 to 10000 nM; in assay [2], 1 to 100 nM.

For `CCCN(CCC)C(=O)C1=Cc2ccc(-c3ccncc3)cc2N=C(N)C1` [Compound 134, (1E,4E)-2-amino-N,N-dipropyl-8-(pyridin-4-yl)-3H-benzo[b]azepine-4-carboxamide], the 50% effective concentration (EC50) was 1000 to 10000 nM in assay [1] and 100 to 1000 nM in assay [2].

As for `CCCN(CCC)C(=O)C1=Cc2ccc(-c3cccc(C#N)c3)cc2N=C(N)C1` [Compound 136, (1E,4E)-2-amino-8-(3-cyanophenyl)-N,N-dipropyl-3H-benzo[b]azepine-4-carboxamide], the results for the EC50 in assay [1] and in assay [2] were 1000 to 10000 nM and 1 to 100 nM, respectively.

`CCCN(CCC)C(=O)C1=Cc2ccc(-c3ccc(C#N)cc3)cc2N=C(N)C1` [Compound 137, (1E,4E)-2-amino-8-(4-cyanophenyl)-N,N-dipropyl-3H-benzo[b]azepine-4-carboxamide]: the EC50 in assay [1] lay within 10000 to 100000 nM; in assay [2] it was 1 to 100 nM.

With `CCCN(CCC)C(=O)C1=Cc2ccc(-c3cccc(C(=O)N(C)C)c3)cc2N=C(N)C1` [Compound 138, (1E,4E)-2-amino-8-(3-(dimethylcarbamoyl)phenyl)-N,N-dipropyl-3H-benzo[b]azepine-4-carboxamide], the EC50 in assay [1] was 1000 to 10000 nM; in assay [2], 1 to 100 nM.

On to `CCCN(CCC)C(=O)C1=Cc2ccc(-c3ccc(C(=O)OCC)cc3)cc2N=C(N)C1` [Compound 139, ethyl 4-((1E,4E)-2-amino-4-(dipropylcarbamoyl)-3H-benzo[b]azepin-8-yl)benzoate], for which the EC50 in assay [1] lay within 1000 to 10000 nM; in assay [2], 100 to 1000 nM.

Take `CCOC(=O)C1=Cc2ccc(-c3cccnc3)cc2N=C(N)C1` [Compound 142, (1E,4E)-ethyl 2-amino-8-(pyridin-3-yl)-3H-benzo[b]azepine-4-carboxylate]: the results for the EC50 in assay [1] and in assay [2] were 1000 to 10000 nM and 1 to 100 nM, respectively.

`CCOC(=O)C1=Cc2ccc(-c3cncnc3)cc2N=C(N)C1` [Compound 144, (1E,4E)-ethyl 2-amino-8-(pyrimidin-5-yl)-3H-benzo[b]azepine-4-carboxylate]: the EC50 in assay [1] is 1000 to 10000 nM; in assay [2], 1 to 100 nM.

Regarding `CCOC(=O)C1=Cc2ccc(-c3cccc(C(=O)N(C)C)c3)cc2N=C(N)C1` [Compound 147, (1E,4E)-ethyl 2-amino-8-(3-(dimethylcarbamoyl)phenyl)-3H-benzo[b]azepine-4-carboxylate], the EC50 was in the range of 1000 to 10000 nM in assay [1] and 100 to 1000 nM in assay [2].
